Experiments:
[1] = Phase 1 clinical study, plasma pharmacokinetics; conditions: for AUC0-t / Cmax / t1/2: mean (SD); for Tmax: median (minimum, maximum)
[2] = system: healthy volunteers; experiment: 11-Dimensions-Altered States of Consciousness (11D-ASC); format: in vivo, human
[3] = system: healthy volunteers; experiment: Phase 1 Self-Compassion Scale (SCS); format: in vivo, human
From the text: Self-compassion is defined as being open to and moved by one's own suffering, experiencing feelings of caring and kindness toward oneself, taking an understanding, non-judgmental attitude toward one's inadequacies and failures, and recognizing that one's own experience is part of the common human experience (Neff, K. D., 2003. The development and validation of a scale to measure self-compassion. Self and Identity, 2, 223-250). The Self-Compassion Scale is an assessment tool designed to measure three core components of self-compassion: self-kindness, common humanity and mindfulness. (SCS; Neff, K. D., 2011. Self-compassion: Stop beating yourself up and leave insecurity behind. New York, NY: Harper Collins) The total self-compassion score is the total of the scores of the sub-items: self-kindness, self-judgement (reversed), common humanity, isolation (reversed), mindfulness and over-identification (reversed).

[4] = molecular target: T1, human 5-HT2B receptor (Homo sapiens, UniProt P41595); experiment: 5-HT2B agonism, inositol monophosphate accumulation (HTRF), CHO-K1 recombinant cells; format: cell-based
T1 construct: expressed in transfected cells; host or cells: CHO-K1

[5] = system: oxytocin; experiment: Phase 1 hormone response, oxytocin; format: in vivo, human; conditions: any cohort vs placebo group
[6] = molecular target: T2, human 5-HT2C (edited) receptor (Homo sapiens, UniProt P28335); experiment: 5-HT2C (edited) agonism, inositol monophosphate accumulation (HTRF), CHO-K1 recombinant cells; format: cell-based
T2 sequence (P28335 33-458): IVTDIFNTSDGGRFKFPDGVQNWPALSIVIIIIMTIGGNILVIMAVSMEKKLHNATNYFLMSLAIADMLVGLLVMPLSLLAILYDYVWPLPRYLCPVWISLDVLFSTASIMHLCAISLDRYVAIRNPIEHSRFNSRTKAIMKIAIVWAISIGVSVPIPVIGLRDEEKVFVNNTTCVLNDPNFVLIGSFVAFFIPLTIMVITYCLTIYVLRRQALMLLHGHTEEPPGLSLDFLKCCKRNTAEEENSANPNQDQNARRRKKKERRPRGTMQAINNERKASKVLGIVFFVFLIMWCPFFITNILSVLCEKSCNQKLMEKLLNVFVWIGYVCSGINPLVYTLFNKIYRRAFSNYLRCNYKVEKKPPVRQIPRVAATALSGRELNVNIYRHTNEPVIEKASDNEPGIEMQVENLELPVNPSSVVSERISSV

[7] = system: healthy volunteers; experiment: Phase 1 Multifaceted Empathy Test (MET); format: in vivo, human; conditions: 75-225 mg
From the text: The Multifaceted Empathy Test (MET) measures cognitive empathy (CE), explicit emotional empathy (EEE) and implicit emotional empathy (IEE).

[8] = system: healthy volunteers; experiment: Phase 1 5-Dimensions-Altered States of Consciousness (5D-ASC); format: in vivo, human; conditions: 75-225 mg oral
From the text: The 5D-ASC measures the acute drug effects using 5 primary dimensions and 11 lower-order scales to assess alterations in mood, perception and experience of self in relation to environment and thought disorder. The 5 dimensions include oceanic boundlessness, anxious ego dissolution, visionary restructuralization, auditory alterations, and reduction of vigilance.
A notable result illustrated by the ASC data was the reporting ratio of feelings of Oceanic Boundlessness (OB) relative to Dread of Ego Dissolution (DED). The ratio can be a useful metric as they are inversely correlated with psychedelic-mediated antidepressant efficacy (OB positively correlated, DED negatively correlated). […] The OB-DED ratio was consistent with the 11-Dimensional Altered States of Consciousness (11D-ASC).

[9] = system: healthy volunteers; experiment: Phase 1 Challenging Experiences Questionnaire (CEQ); format: in vivo, human; conditions: 6.5 hours post dosing
From the text: Seven Challenging Experiences Questionnaire (CEQ) factors (grief, fear, death, insanity, isolation, physical distress, and paranoia) provide a phenomenological profile of challenging aspects of experiences with R(−)-MDMA.

[10] = system: healthy volunteers; experiment: Phase 1 exploratory Visual Analog Scale (VAS); format: in vivo, human; conditions: vs placebo; dose-dependent pattern
From the text: VAS measure changes in subjective experience that are typical in healthy human volunteer studies. These include experiences such as Happy, Open, Loving, Close to Others, Sociable, and Lonely.

[11] = system: healthy volunteers; experiment: Facial Emotion Recognition Test (FERT); format: in vivo, human
[12] = system: rat embryonic cortical neurons; experiment: In vitro rat cortical neurite outgrowth; format: cell-based; conditions: 3 days, vs vehicle control
Description: The experiment included a 0.1% sterile water vehicle negative control condition and a 250 nM donepezil positive control condition, and the number of neurites per neuron, total neurite length per neuron and branchpoints per neuron from n=12 wells per treatment were compared to the vehicle control condition.

[13] = system: healthy volunteers; experiment: Phase 1 Spoken Intensity Rating Scale (SIRS); format: in vivo, human
Description: Beyond 8 hours postdose, mean SIRS scores remained ≤0.5 in all cohorts.

[14] = plasma analyte after oral 125 mg R(−)-MDMA, Day 9
[15] = plasma analyte after single oral 75 mg R(−)-MDMA, Day 1
[16] = plasma analyte after single oral 125 mg R(−)-MDMA, Day 1
[17] = plasma analyte after single oral 175 mg R(−)-MDMA, Day 1
[18] = plasma analyte after single oral 225 mg R(−)-MDMA, Day 1

T1 sequence (P41595 whole entry): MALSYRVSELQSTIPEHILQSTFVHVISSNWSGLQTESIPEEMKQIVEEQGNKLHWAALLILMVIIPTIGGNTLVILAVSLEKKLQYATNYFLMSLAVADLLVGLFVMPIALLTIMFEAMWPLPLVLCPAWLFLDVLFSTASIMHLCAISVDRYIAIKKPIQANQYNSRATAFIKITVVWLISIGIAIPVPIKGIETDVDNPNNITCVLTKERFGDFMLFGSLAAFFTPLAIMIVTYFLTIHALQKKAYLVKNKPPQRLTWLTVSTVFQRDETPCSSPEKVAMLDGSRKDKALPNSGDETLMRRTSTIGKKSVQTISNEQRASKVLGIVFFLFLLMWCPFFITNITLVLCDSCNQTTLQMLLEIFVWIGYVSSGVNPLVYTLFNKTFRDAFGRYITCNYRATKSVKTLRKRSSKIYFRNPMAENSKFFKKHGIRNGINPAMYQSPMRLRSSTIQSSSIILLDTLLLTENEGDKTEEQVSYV

## CN[C@H](C)Cc1ccc2c(c1)OCO2 [R(−)-MDMA, R(−)-3,4-methylenedioxymethamphetamine]
[1]; 125 mg fasted vs fed
  food effect: No food effect
[1]; 30 hours postdose
  mean plasma concentration at final PK assessments: remained above the lower limit of quantitation
[1]; [14]
  AUC0-t: 7229.6028 (1863.6711) h · ng/mL
  Cmax: 455.4850 (65.0461) ng/mL
  t1/2: 13.3444 (3.5309) hr
  Tmax: 2.758 (2.08, 4.02) hr
[1]; [15]
  AUC0-t: 3976.7452 (1350.4178) h · ng/mL
  Cmax: 275.8217 (90.7390) ng/mL
  t1/2: 9.2622 (2.5227) hr
  Tmax: 3.000 (2.02, 3.00) hr
[1]; [16]
  AUC0-t: 7135.8809 (1245.2963) h · ng/mL
  Cmax: 425.2550 (62.4569) ng/mL
  t1/2: 11.8615 (1.9947) hr
  Tmax: 3.517 (1.50, 4.02) hr
[1]; [17]
  AUC0-t: 10007.8882 (2324.8851) h · ng/mL
  Cmax: 617.3440 (158.9596) ng/mL
  t1/2: 12.2009 (1.4988) hr
  Tmax: 4.000 (3.00, 6.02) hr
[1]; [18]
  AUC0-t: 14453.1811 (3684.7488) h · ng/mL
  Cmax: 828.6450 (213.1377) ng/mL
  t1/2: 14.0772 (3.2340) hr
  Tmax: 5.000 (3.00, 6.02) hr
[2]; 225 mg dose group vs comparators of FIG. 11
  11D-ASC changed meaning of percepts: strongest
[2]; 75-225 mg oral
  11D-ASC response profile: psychedelic-like response
[3]; 225 mg group, 1 week of follow-up
  SCS self-kindness score, mean: 4.1
[3]; 225 mg group, before dosing
  SCS self-kindness score, mean at baseline: 3.9
[3]; higher doses, 1 week of follow-up
  self-compassion (self-kindness) scores: significantly increased
[4]; 5-HT2B receptors
  agonism in words: high potency full agonism
[4]; 5-HT2B, CHO-K1, IP accumulation
  EC50: 53 nM
[4]; 5-HT2B, relative to α-Me-5-HT at its EC100
  Efficacy (% of a-Me-5-HT response): 91.8%
[5]
  oxytocin production: did not appear to have an effect
[6]; 5-HT2C (edited) receptors
  agonism in words: high potency full agonism
[6]; 5-HT2C (edited), relative to α-Me-5-HT at its EC100
  Efficacy (% of a-Me-5-HT response): 96.6%
[7]
  MET LSmean scores in CE negative emotions, changes from baseline: dose-dependent manner
[8]
  5D-ASC sub-components and total score: dose-dependent increase in all measured sub-components and in the total score
[9]
  CEQ changes from baseline: clear dose-dependent response with statistical significance at higher doses
[10]
  VAS scores for positive affect (happy, loving, openness, less loneliness): increased VAS scores compared to placebo
[11]; 75 mg
  reduction in the recognition of angry (threatening) faces: 13.2%
[11]; 125 mg
  reduction in the recognition of angry (threatening) faces: 12.3%
[11]; 175 mg
  reduction in the recognition of angry (threatening) faces: 8.8%
[11]; 225 mg
  misclassifications to happy faces, change from baseline (mean): +1.16
  reduction in the recognition of angry (threatening) faces: 12.4%
[12]; 0.0001 μM
  number of neurites per neuron: modest yet significant increases
[12]; 10 μM
  branchpoints per neuron: modest yet significant increases
  number of neurites per neuron: modest yet significant increases
  total neurite length per neuron: modest yet significant increases
[13]; 75-225 mg oral
  SIRS dose response: strong dose response
[13]; all cohorts, beyond 8 hours postdose
  mean SIRS scores: ≤ 0.5
[13]; fasted state, each cohort, 1 to 2 hours postdose
  mean SIRS scores: small nominal increases from Baseline
